Source: patent US20250040554A1, “NEW USES OF PHENMEDIPHAM AND HERBICIDAL COMBINATIONS COMPRISING PHENMEDIPHAM” (BAYER AKTIENGESELLSCHAFT, priority 2021, published 2025)

Tests used:
[1] = system: corn (Zea mays subsp. amylacea, ZEAMA); assay: Greenhouse selectivity trial, post-emergence, corn; format: in vivo; settings: 8 DAA
Source text: (§1) The respective (combinations of) materials were applied to weed plants in the greenhouse or in the field at the respective growth stage indicated hereinafter for the different weed species mentioned below. The respective (combinations of) active ingredients were also applied to corn, cotton and soybean crop plants, and the selectivity (damage) in these crop plants rated (assessed).
(§2) Visual scoring of the damage to the trial plants took place after the time mentioned in the respective Table—indicated in number of Days After Application (DAA). Damage and development of all above-ground parts of the respective plants was recorded. Visual rating was done on a percentage scale in relation to the untreated control (100%=all plants dead; 50%=green plant biomass reduced by 50%, and 0%=no discernible difference=like control plot).
(§3) The trials in the greenhouse were sprayed with an application volume of 300 L/ha with an automated track sprayer. The plots in the field were sprayed with an application volume of 140 L/ha with a hand held spray boom.
(§4) In greenhouse selectivity trials and trials herbicidal activity trials against weed plants were investigated in post-emergence application of the respective material(s).
(§5) Phenmedipham was applied at varying application rates (Dose Rate) to the crop plants of corn (Zea mays subsp. amylacea, ZEAMA), soybean (Glycine max, GLXMA) and cotton (Gossypium hirsutum, GOSHI) at a BBCH growth stage of the plants of BBCH 13 and the crop safety (crop injury, damage) assessed. The results are shown in Table 1 as the % damage when assessed 8 days after application (8 DAA).
(§6) In all the selectivity trials of Table 1 the adjuvant Mero® (rapeseed oil methyl ester) was added to the respective spray mixture in an amount corresponding to 1 L/ha.

soybean (GLXMA) = assay: Damage in soybean in the field trials of Tables 4a to 4e; format: in vivo, Glycine max; settings: PMP applied to GLXMA at growth stage BBCH 14, field trials of Tables 4a to 4e, each case
Description: In the field trials of Tables 4a to 4e also the damage in soybean was assessed when PMP was applied to GLXMA at growth stage BBCH 14. The damage observed in each case was agronomically acceptable, i.e. below 15%.

[2] = system: soybean (Glycine max, GLXMA); assay: Greenhouse selectivity trial, post-emergence, soybean; format: in vivo; settings: 8 DAA
Source text: as §1, §2, §3, §4, §5, §6

## COC(=O)Nc1cccc(OC(=O)Nc2cccc(C)c2)c1 [PMP, 3-[(methoxyformyl)amino]phenyl (3-methylphenyl)carbamate]
[1]; 12.5 g/ha
  % damage ZEAMA (corn): 0%
[1]; 25 g/ha
  % damage ZEAMA (corn): 0%
[1]; 75 g/ha
  % damage ZEAMA (corn): 7%
[1]; 125 g/ha
  % damage ZEAMA (corn): 0%
[1]; 200 g/ha
  % damage ZEAMA (corn): 15%
[1]; 300 g/ha
  % damage ZEAMA (corn): 30%
Soybean (GLXMA)
  damage in soybean: below 15%
[2]; 12.5 g/ha
  % damage GLXMA (soybean): 2%
[2]; 25 g/ha
  % damage GLXMA (soybean): 3%
[2]; 75 g/ha
  % damage GLXMA (soybean): 0%
[2]; 125 g/ha
  % damage GLXMA (soybean): 5%
[2]; 200 g/ha
  % damage GLXMA (soybean): 18%
[2]; 300 g/ha
  % damage GLXMA (soybean): 20%
